The conditions of the series: for Normal melting temperature: Crystal.

Molecules are shown by their SMILES. Numbers after ± are expanded uncertainties.

In the case of `C=CC[n+]1cccc(C)c1.[Cl-]` [1-allyl-3-methylpyridinium chloride], the Normal melting temperature (visual observation) worked out at 108.00 ± 5 °C. Also, under “DTA”, the Glass transition temperature is 27.50 ± 5 °C.
As to `CCCC[n+]1cccc(C)c1.[Cl-]` [1-butyl-3-methylpyridinium chloride], the Normal melting temperature reads like this: (DTA) 93.00 ± 5 °C; (visual observation) 97.00 ± 5 °C. Also, under “DTA”, the Glass transition temperature was determined as 35.00 ± 5 °C.
Regarding `CCCCCCCCCC[n+]1cccc(C)c1.[Cl-]` [1-decyl-3-methylpyridinium chloride], the Normal melting temperature reads like this: (DTA) 55.00 ± 5 °C; (visual observation) 64.00 ± 5 °C.
In the case of `CC[n+]1cccc(C)c1.[Br-]` [1-ethyl-3-methylpyridinium bromide], the Normal melting temperature by setting is: (DTA) 146.00 ± 5 °C; (visual observation) 163.00 ± 5 °C.
As to `CC[n+]1cccc(C)c1.[Cl-]` [1-ethyl-3-methylpyridinium chloride], the Normal melting temperature (visual observation) was found to be 130.00 ± 5 °C. For the same molecule, the Glass transition temperature (DTA) was 29.00 ± 5 °C.
For `CCCCCCC[n+]1cccc(C)c1.[Cl-]` [1-heptyl-3-methylpyridinium chloride], the Normal melting temperature (visual observation) came to 72.00 ± 5 °C. Also, the Glass transition temperature (DTA) is 16.50 ± 5 °C.
With `CCCCCC[n+]1cccc(C)c1.[Cl-]` [1-hexyl-3-methylpyridinium chloride], the Normal melting temperature (DTA) amounted to 62.00 ± 5 °C and the Normal melting temperature (visual observation) was 77.00 ± 5 °C.
As to `CCCCCCCCC[n+]1cccc(C)c1.[Cl-]` [1-nonyl-3-methylpyridinium chloride], the Normal melting temperature (visual observation) worked out at 64.00 ± 5 °C.
In the case of `CCCCCCCC[n+]1cccc(C)c1.[Cl-]` [1-octyl-3-methylpyridinium chloride], the Normal melting temperature (DTA) amounted to 69.00 ± 5 °C and the Normal melting temperature (visual observation) was found to be 74.00 ± 5 °C.
For the molecule `CCCCC[n+]1cccc(C)c1.[Cl-]` [1-pentyl-3-methylpyridinium chloride], the Normal melting temperature (visual observation) was 92.00 ± 5 °C. Also, where the note is “DTA”, the Glass transition temperature was 21.50 ± 5 °C.
For `CCC[n+]1cccc(C)c1.[Cl-]` [1-propyl-3-methylpyridinium chloride] the same measures were 92.00 ± 5 °C and 18.50 ± 5 °C.

The values above are taken from the NIST ThermoML archive (doi:10.1016/j.tca.2013.06.022).
